From US20230338572A1, “ANTI-TM4SF1 ANTIBODY-DRUG CONJUGATES COMPRISING CLEAVABLE LINKERS AND METHODS OF USING SAME” (Angiex, Inc., priority 2020, published 2023)

Assays:
MiaPaCa2 = assay: In vitro cell proliferation inhibition assay (Example 10); type: cell-based, human; conditions: free drug/linker payload; 5 days
Experimental: (§1) The effects of antibody drug-conjugates (drug to antibody ratio (DAR) varying from 0.9 to 3.5) containing a drug (maytansine or camptothecin) assessed in cultured mouse (MS1) and human (HUVEC, and MiaPaCa2) cells. The structures of the ADC tested are listed in Table 8 and shown in FIG. 19 (ADC) and FIG. 26 (ADC2, ADC3, and ADC4). Both Exemplary Antibody 1 and Exemplary Antibody 2 contain human IgG1 constant region with YTEC mutation. Cells were incubated for 5 days with the antibody drug conjugate before assessing cell viability on day 5.
(§2) In this experiment, different payloads were respectively assessed in cultured mouse (MS1) and human (MiaPaCa2 and HUVEC) cells. Cells were treated incubated for 5 days with the antibody drug conjugate before assessing cell viability on day 5.

HUVEC = assay: as above; type: cell-based, human; conditions: free drug/linker payload, 5 days
Experimental: as §1, §2

[1] = cited from earlier work
MS1 = assay: In vitro cell proliferation inhibition assay (Example 10); type: cell-based, mouse; conditions: free drug/linker payload, 5 days
Experimental: as §1, §2

[2] = biological target: T1, human TM4SF1 (transmembrane-4 L six family member-1), on HUVEC cells (UniProt P30408 1-202); assay: flow cytometry, HUVEC
T1 chain: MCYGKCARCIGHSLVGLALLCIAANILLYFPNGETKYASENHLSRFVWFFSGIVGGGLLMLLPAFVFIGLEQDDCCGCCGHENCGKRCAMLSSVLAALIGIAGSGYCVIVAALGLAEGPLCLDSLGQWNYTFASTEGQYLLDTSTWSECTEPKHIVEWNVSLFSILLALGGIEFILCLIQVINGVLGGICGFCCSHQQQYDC

Maleimide-ethylamino-nosyl-Ahx-Maytansine [payload 1]
EC50 (MiaPaCa2): 0.0395 nM
EC50 (HUVEC): 0.114 nM

Combretastatin [CA4P]
Overall survival ([1]; Phase II FALCON study, reduced from 16.2): 13.6 months
Patients who experienced heart attacks while being treated ([1]; human, in vivo): seven

Maleimide-tetrazine-PEG3-methyl-EDA-nosyl-Camptothecin [payload 2]
EC50 (MS1): 6710 nM
EC50 (HUVEC): 1450 nM

CC[C@@]1(O)C(=O)OCc2c1cc1n(c2=O)Cc2cc3ccccc3nc2-1 [payload 3, Camptothecin]
EC50 (MS1; Mus musculus, MS-1, 120 h): 34.3 nM
EC50 (HUVEC; Homo sapiens, HUVEC, 120 h): 1.89 nM

B1: AGX-A07 "YTEC" variant (anti-TM4SF1 antibody AGX-A07 with Fc mutations N297C, M252Y, S254T and T256E), naked antibody (antibody, V domains shown)
VH: QIQLVQSGPELKKPGETVKISCKASGYTFTNYGVKWVKQAPGKDLKWMGWINTYTGNPIYAADFKGRFAFSLETSASTAFLQINNLKNEDTATYFCVRFQYGDYRYFDVWGAGTTVTVSS
VL: QIILSQSPAILSASPGEKVTMTCRANSGISFINWYQQKPGSSPKPWIYGTANLASGVPARFGGSGSGTSYSLTISRVEAEDAATYYCQQWSSNPLTFGAGTKLELR
EC50 [2]: 1.75 nM
